{"source": "patent US8129123B2", "about": "“Methods for assessing atherogenesis by determining oxidized phospholipid to apolipoprotein B ratios” (The Regents of the University of California, priority 2004, dated 2012)", "key": {"[1]": {"test": "MIRACL trial: primary efficacy measure (recurrent ischemic events) over 16 weeks", "assay_type": "in vivo, human", "details": "2442 patients with baseline data, 16-week follow-up", "procedure": "(§1) The MIRACL study design was previously published. Briefly, the study recruited 3086 patients with unstable angina or non-Q-wave acute myocardial infarction between 24-96 hours after hospital admission at 122 centers in 19 countries. Patients were randomly assigned to double-blind treatment with atorvastatin 80 mg/day or placebo for 16 weeks. The primary efficacy measure was the time to first occurrence of death, nonfatal acute myocardial infarction, cardiac arrest with resuscitation, or worsening angina with new objective evidence of ischemia and requiring emergency re-hospitalization. […] Patients were analyzed on an intention-to-treat basis.\n(§2) Since the baseline and Week 16 distributions of the OxLDL markers were positively skewed, log-transformed values were used in the statistical models and analyses and antilog-transformed for descriptive statistics yielding geometric means and 95% confidence intervals (CI) for baseline, Week 16 and percent change from baseline to Week 16. […] For each marker, the logistic regression model included terms for log-transformed marker and randomized treatment assignment; odds ratios were expressed as the relative odds for each one unit increase in the log-transformed marker. Pearson correlations were calculated to summarize the relationship between OxPL/apoB and Lp(a) at baseline and at Week 16. […]"}, "[2]": {"system": "oxidized phospholipids (OxPL) on apoB-100 particles", "test": "OxLDL-E06 chemiluminescent ELISA (OxPL/apoB and Total apoB-OxPL) in plasma", "assay_type": "in vivo, human", "procedure": "(§3) The MIRACL study design was previously published. Briefly, the study recruited 3086 patients with unstable angina or non-Q-wave acute myocardial infarction between 24-96 hours after hospital admission at 122 centers in 19 countries. Patients were randomly assigned to double-blind treatment with atorvastatin 80 mg/day or placebo for 16 weeks. The primary efficacy measure was the time to first occurrence of death, nonfatal acute myocardial infarction, cardiac arrest with resuscitation, or worsening angina with new objective evidence of ischemia and requiring emergency re-hospitalization. 2739 patients completed the entire 16 week follow-up period, of whom 2442 had baseline blood samples and 2341 had baseline and Week 16 blood samples available for analysis. Blood was collected in EDTA and stored at −70° C. until analysis. Patients were analyzed on an intention-to-treat basis.\n(§4) Chemiluminescent ELISA was used to measure OxLDL markers (FIG. 1A-1C). All samples for a given assay were run in a single assay and internal controls consisting of high and low standard plasma samples were included to detect potential variations between microtitration plates. Each sample was assayed in triplicate and data are expressed as relative light units (RLU) in 100 milliseconds. The intra-assay coefficients of variation for all assays were 6-10%.\nOxLDL-E06 is a measure of the content of oxidized phospholipids (OxPL) per apoB-100 particle using the murine monoclonal antibody E06, which specifically binds to the phosphorylcholine head group of oxidized but not native phospholipids. A 1:50 dilution of plasma in phosphate-buffered saline (PBS) is added to microtiter wells coated with the monoclonal antibody MB47 (5 μg/ml), which specifically binds apoB-100 particles. Under these conditions, a saturating amount of apoB-100 is added to each well and consequently an equal number of apoB-100 particles are captured in each well for all assays. The content of OxPL per apoB-100 is then determined with biotinylated E06. In a previous study we directly measured the amount of apoB-100 bound in each well by the degree of binding of a biotinylated anti-apoB-100 antibody, and compared the OxPL RLU values alone to the ratio of OxPL RLU/apoB-100 RLU and found a correlation of r^2=0.99 (n=1500 samples). Therefore, we arbitrarily assigned the apoB-100 RLU value in the denominator as 1 and report the OxPL/apoB values as OxPL RLU counts only. Note that by design, this assay normalizes the OxPL content per apoB-100 particle and is therefore independent of plasma apoB-100 (and thus LDL-cholesterol) levels.\n(§5) The data for OxLDL-E06 and apoB-IC are presented in two ways: 1) as OxPL/apoB and IC/apoB, which specifically quantifies the content of OxPL and IC, respectively, on each captured apoB-100 particle, and 2) as Total apoB-OxPL and Total apoB-IC, which reflects the OxPL and IC content on all apoB-100 containing particles in plasma, by multiplying the plasma “OxPL/apoB” and “IC/apoB” value by the plasma apoB-100 levels measured independently as noted below.\nSince the baseline and Week 16 distributions of the OxLDL markers were positively skewed, log-transformed values were used in the statistical models and analyses and antilog-transformed for descriptive statistics yielding geometric means and 95% confidence intervals (CI) for baseline, Week 16 and percent change from baseline to Week 16. […]"}, "[3]": {"system": "apoB-100 immune complexes", "test": "Apolipoprotein B-100 immune complexes (IC/apoB and Total apoB-IC, IgG and IgM) chemiluminescent ELISA in plasma", "assay_type": "in vivo, human", "procedure": "as §3, §4, §5\n(§6) Plasma titers of IgG and IgM apoB-IC and malondialdehyde (MDA-LDL) (1:200 plasma dilution) autoantibodies and apoB-IC were measured as previously described.\nSince the baseline and Week 16 distributions of the OxLDL markers were positively skewed, log-transformed values were used in the statistical models and analyses and antilog-transformed for descriptive statistics yielding geometric means and 95% confidence intervals (CI) for baseline, Week 16 and percent change from baseline to Week 16. Inferential analyses included paired-sample t-tests for within treatment group differences in markers at baseline versus Week 16, and independent-sample t-tests for between treatment group differences in markers at Week 16 and between treatment group differences in absolute change in log-transformed markers from baseline to Week 16. Logistic regression models were constructed to summarize the relationships between baseline OxLDL values and the primary efficacy measure of the trial. For each marker, the logistic regression model included terms for log-transformed marker and randomized treatment assignment; odds ratios were expressed as the relative odds for each one unit increase in the log-transformed marker. Pearson correlations were calculated to summarize the relationship between OxPL/apoB and Lp(a) at baseline and at Week 16. Statistical significance was defined as P<0.05."}, "MDA-LDL autoantibodies": {"system": "MDA-LDL autoantibodies", "test": "Autoantibodies to MDA-LDL (IgG and IgM) chemiluminescent ELISA in plasma", "assay_type": "in vivo, human", "procedure": "as §3\nChemiluminescent ELISA was used to measure OxLDL markers (FIG. 1A-1C). […] Each sample was assayed in triplicate and data are expressed as relative light units (RLU) in 100 milliseconds. […]\nas §6, §2"}, "Lp(a)": {"system": "Lp(a)", "test": "Plasma Lp(a) level, chemiluminescent ELISA with antibody LPA4", "assay_type": "in vivo, human", "procedure": "as §1\n(§7) Plasma Lp(a) levels were measured by a chemiluminescent ELISA with monoclonal antibody LPA4, as previously described. […] ApoB-100 levels were measured by a commercially available kit (Behring) and CRP levels as previously described.\n(§8) Since the baseline and Week 16 distributions of the OxLDL markers were positively skewed, log-transformed values were used in the statistical models and analyses and antilog-transformed for descriptive statistics yielding geometric means and 95% confidence intervals (CI) for baseline, Week 16 and percent change from baseline to Week 16. […] Pearson correlations were calculated to summarize the relationship between OxPL/apoB and Lp(a) at baseline and at Week 16. […]"}, "ApoB-100": {"system": "ApoB-100", "test": "Plasma apoB-100 level (Behring kit)", "assay_type": "in vivo, human", "procedure": "as §1, §7, §8"}, "LDL cholesterol [4]": {"system": "LDL cholesterol", "test": "Plasma LDL cholesterol in MIRACL patients", "assay_type": "in vivo, human", "procedure": "as §3, with “MIRACL” left out, “-70°” for “−70°”"}, "[5]": {"details": "entire MIRACL population, 16 weeks; cited from earlier work"}, "LDL cholesterol [6]": {"system": "LDL cholesterol", "details": "PROVE-IT, two years' treatment, 80 mg atorvastatin versus 40 mg pravastatin; cited from earlier work"}, "[7]": {"details": "Week 16, atorvastatin 80 mg/day, ACS patients, geometric mean"}}, "note": "Where two headings read alike, the source gives them in different places.", "data": [{"compound": "CC(C)c1c(C(=O)Nc2ccccc2)c(-c2ccccc2)c(-c2ccc(F)cc2)n1CC[C@@H](O)C[C@@H](O)CC(=O)O", "note": "[atorvastatin]", "values": [{"measurement": "patients with a primary endpoint event", "setting": "[1]", "result": 10.7, "unit": "%"}, {"measurement": "OxPL/apoB mean level", "setting": "[2]; [7]", "result": 11048, "unit": "RLU"}, {"measurement": "Total apoB-OxPL mean level", "setting": "[2]; [7]", "result": "912 (RLU · mg/dl) × 10^3"}, {"measurement": "OxPL/apoB relative increase from baseline", "setting": "[2]; baseline to Week 16, 80 mg/day", "result": 9.5, "unit": "%"}, {"measurement": "Total apoB-OxPL percent change from baseline", "setting": "[2]; baseline to Week 16, 80 mg/day", "result": "−29.7", "unit": "%"}, {"measurement": "OxPL enrichment of apoB particles (OxPL/apoB), absolute difference compared to placebo", "setting": "[2]; baseline to Week 16 change, atorvastatin vs placebo", "result": 13.4, "unit": "%"}, {"measurement": "IC/apoB IgG mean level", "setting": "[3]; [7]", "result": 9048, "unit": "RLU"}, {"measurement": "IC/apoB IgM mean level", "setting": "[3]; [7]", "result": 3933, "unit": "RLU"}, {"measurement": "Total apoB-IC IgG mean level", "setting": "[3]; [7]", "result": "749 (RLU · mg/dl) × 10^3"}, {"measurement": "Total apoB-IC IgM mean level", "setting": "[3]; [7]", "result": "325 (RLU · mg/dl) × 10^3"}, {"measurement": "IgG IC/apoB relative increase from baseline", "setting": "[3]; baseline to Week 16, 80 mg/day", "result": 9.6, "unit": "%"}, {"measurement": "IgM IC/apoB relative increase from baseline", "setting": "[3]; baseline to Week 16, 80 mg/day", "result": 15.4, "unit": "%"}, {"measurement": "Total apoB-IC IgG percent change from baseline", "setting": "[3]; baseline to Week 16, 80 mg/day", "result": "−29.5", "unit": "%"}, {"measurement": "Total apoB-IC IgM percent change from baseline", "setting": "[3]; baseline to Week 16, 80 mg/day", "result": "−25.7", "unit": "%"}, {"measurement": "Autoantibodies to MDA-LDL IgG mean level", "setting": "MDA-LDL autoantibodies; [7]", "result": 4922, "unit": "RLU"}, {"measurement": "Autoantibodies to MDA-LDL IgM mean level", "setting": "MDA-LDL autoantibodies; [7]", "result": 1088, "unit": "RLU"}, {"measurement": "IgG and IgM MDA-LDL autoantibody level increase", "setting": "MDA-LDL autoantibodies; baseline to Week 16, range stated for both groups (atorvastatin and placebo)", "result": "9.1-14.4%"}, {"measurement": "Lp(a) mean level", "setting": "Lp(a); [7]", "result": 13.0, "unit": "mg/dL"}, {"measurement": "Lp(a) relative increase from baseline", "setting": "Lp(a); baseline to Week 16, 80 mg/day", "result": 8.8, "unit": "%"}, {"measurement": "ApoB-100 mean level", "setting": "ApoB-100; [7]", "result": 87, "unit": "mg/dL"}, {"measurement": "apoB-100 percent change from baseline", "setting": "ApoB-100; baseline to Week 16, 80 mg/day", "result": "−33.0", "unit": "%"}, {"measurement": "LDL cholesterol level after treatment", "setting": "LDL cholesterol [4]; Week 16 (from 124±34 at baseline), 80 mg/day", "result": "72 ± 35", "unit": "mg/dL"}, {"measurement": "reduction in LDL cholesterol", "setting": "LDL cholesterol [4]; baseline to Week 16, 80 mg/day", "result": 42, "unit": "%"}, {"measurement": "patients with a primary endpoint event", "setting": "[5]", "result": 14.6, "unit": "%"}, {"measurement": "median LDL cholesterol level", "setting": "LDL cholesterol [6]", "result": 62, "unit": "mg/dL"}]}]}
